Measurements from US10294202B2, “Pyrrolidinones as herbicides” (FMC Corporation, priority 2013, dated 2019).

Legend:
[1] = system: sedge, umbrella; test: Test B flooded paddy test; assay type: in vivo, Cyperus difformis; settings: 500 g ai/ha, Flood; scale of 0 to 100 where 0 is no effect and 100 is complete control
Procedure, shortened: (§1)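 Plants grown to 2-leaf stage; pots flooded 3 cm above soil and compound applied directly into paddy water, depth held throughout. Visual rating against untreated controls after 13 to 15 days in greenhouse, 0 (no effect) to 100 (complete control).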

[2] = system: ducksalad; test: Test B flooded paddy test; assay type: in vivo, Heteranthera limosa; settings: 500 g ai/ha, Flood; scale of 0 to 100 where 0 is no effect and 100 is complete control
Procedure, shortened: as §1

[3] = system: barnyardgrass; test: Test B flooded paddy test; assay type: in vivo, Echinochloa crus-galli; settings: 500 g ai/ha, Flood; scale of 0 to 100 where 0 is no effect and 100 is complete control
Procedure, shortened: as §1

[4] = system: ryegrass, Italian; test: Test C pre-/postemergence herbicide test; assay type: in vivo, Lolium multiflorum
Procedure, shortened: (§2)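 Greenhouse pots; formulation = non-phytotoxic solvent mix + surfactant. PRE onto seeds in loam:sand; POST at 1–4 leaves (2–18 cm) in peat moss/vermiculite medium. Read-out: visual % control vs untreated, day 13–15.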

[5] = system: wheat (winter wheat); test: Test C pre-/postemergence herbicide test; assay type: in vivo, Triticum aestivum
Procedure, shortened: as §2

[6] = system: galium; test: Test C pre-/postemergence herbicide test; assay type: in vivo, Galium aparine
Procedure, shortened: as §2

[7] = system: corn; test: Test C pre-/postemergence herbicide test; assay type: in vivo, Zea mays
Procedure, shortened: as §2

[8] = system: lambsquarters; test: Test C pre-/postemergence herbicide test; assay type: in vivo, Chenopodium album
Procedure, shortened: as §2

[9] = system: morningglory; test: Test C pre-/postemergence herbicide test; assay type: in vivo, Ipomoea coccinea
Procedure, shortened: as §2

[10] = system: pigweed; test: Test C pre-/postemergence herbicide test; assay type: in vivo, Amaranthus retroflexus
Procedure, shortened: as §2

[11] = system: ragweed; test: Test C pre-/postemergence herbicide test; assay type: in vivo, Ambrosia elatior
Procedure, shortened: as §2

[12] = system: soybean; test: Test C pre-/postemergence herbicide test; assay type: in vivo, Glycine max
Procedure, shortened: as §2

[13] = system: barnyardgrass; test: Test C pre-/postemergence herbicide test; assay type: in vivo, Echinochloa crus-galli
Procedure, shortened: as §2

[14] = system: waterhemp; test: Test C pre-/postemergence herbicide test; assay type: in vivo, Amaranthus rudis
Procedure, shortened: as §2

[15] = system: oat, wild; test: Test C pre-/postemergence herbicide test; assay type: in vivo, Avena fatua; settings: Postemergence
Procedure, shortened: as §2

[16] = Postemergence, 31 g ai/ha, scale 0 to 100 (0 no effect, 100 complete control)
[17] = Postemergence, 62 g ai/ha, scale 0 (no effect) to 100 (complete control)
[18] = Postemergence, 125 g ai/ha, scale 0 to 100 (0 no effect, 100 complete control)
[19] = Postemergence, 250 g ai/ha, scale 0 to 100 (0 no effect, 100 complete control)
[20] = Preemergence, 31 g ai/ha, scale 0 to 100, 0 is no effect and 100 is complete control
[21] = Preemergence, 62 g ai/ha, scale 0 to 100 (0 no effect, 100 complete control)
[22] = Preemergence, 125 g ai/ha, scale 0 to 100 (0 no effect, 100 complete control)

O=C1NCC(c2ccc(C(F)(F)F)cc2)C1C(=O)Nc1ccc(F)c(F)c1F (centres unmarked) [Compound 232]
15: Plant response rating, Morningglory [9, 16] | Morningglory plant response rating [9, 21] | Plant response rating, Morningglory [9, 22]
90: Plant response rating, Galium [6, 22] | Plant response rating (scale of 0 to 100), Galium ([6]; Preemergence, 250 g ai/ha) | Plant response rating, Lambsquarters [8, 22] | Plant response rating (scale of 0 to 100), Lambsquarters ([8]; Preemergence, 250 g ai/ha) | Plant response rating (scale of 0 to 100), Ragweed ([11]; Preemergence, 250 g ai/ha) | Waterhemp plant response rating [14, 21] | Plant response rating, Waterhemp [14, 22]
65: Ragweed plant response rating [11, 20]
100: Plant response rating, Ducksalad [2]
70: Plant response rating, Corn [7, 22] | Plant response rating, Barnyardgrass [13, 18]
25: Plant response rating, Morningglory [9, 18]
35: Corn plant response rating [7, 21]
30: Plant response rating, Oat, Wild ([15]; 250 g ai/ha, scale 0 to 100 (0 no effect, 100 complete control))
85: Plant response rating, Barnyardgrass [3] | Galium plant response rating [6, 20] | Galium plant response rating [6, 21] | Plant response rating, Lambsquarters [8, 17] | Plant response rating, Lambsquarters [8, 18] | Plant response rating, Lambsquarters [8, 19] | Lambsquarters plant response rating [8, 21] | Plant response rating, Pigweed [10, 17] | Plant response rating, Pigweed [10, 18] | Plant response rating, Pigweed [10, 19] | Pigweed plant response rating [10, 20] | Pigweed plant response rating [10, 21] | Plant response rating, Pigweed [10, 22] | Plant response rating, Ragweed [11, 18] | Ragweed plant response rating [11, 21] | Plant response rating, Ragweed [11, 22] | Barnyardgrass plant response rating [13, 20] | Plant response rating, Barnyardgrass ([13]; Preemergence, 62 g ai/ha, scale 0 to 100) | Waterhemp plant response rating [14, 20]
55: Plant response rating, Barnyardgrass [13, 17]
95: Plant response rating (scale of 0 to 100), Pigweed ([10]; Preemergence, 250 g ai/ha) | Plant response rating, Barnyardgrass [13, 22] | Plant response rating (scale of 0 to 100; 0 is no effect, 100 is complete control), Barnyardgrass ([13]; Preemergence, 250 g ai/ha) | Plant response rating (scale of 0 to 100), Waterhemp ([14]; Preemergence, 250 g ai/ha)
10: Plant response rating, Soybean [12, 17] | Plant response rating, Soybean [12, 18]
5: Plant response rating, Wheat [5, 18] | Plant response rating, Wheat [5, 19] | Plant response rating (scale of 0 to 100), Wheat ([5]; Preemergence, 250 g ai/ha) | Plant response rating (scale of 0 to 100), Soybean ([12]; Preemergence, 250 g ai/ha) | Plant response rating, Barnyardgrass [13, 16]
20: Plant response rating, Ryegrass, Italian [4, 22] | Plant response rating (scale of 0 to 100), Morningglory ([9]; Preemergence, 250 g ai/ha) | Plant response rating, Soybean [12, 19]
60: Plant response rating, Morningglory [9, 19]
75: Plant response rating, Galium [6, 16] | Plant response rating (scale of 0 to 100), Corn ([7]; Preemergence, 250 g ai/ha) | Lambsquarters plant response rating [8, 20] | Plant response rating, Ragweed [11, 16] | Plant response rating, Ragweed [11, 19] | Plant response rating, Barnyardgrass [13, 19] | Plant response rating, Waterhemp [14, 16] | Plant response rating, Waterhemp [14, 17]
40: Plant response rating, Ryegrass, Italian [4, 19] | Plant response rating (scale of 0 to 100), Ryegrass, Italian ([4]; Preemergence, 250 g ai/ha)
80: Plant response rating, Galium [6, 17] | Plant response rating, Galium [6, 18] | Plant response rating, Galium [6, 19] | Plant response rating, Lambsquarters [8, 16] | Plant response rating, Pigweed [10, 16] | Plant response rating, Ragweed [11, 17] | Plant response rating, Waterhemp [14, 18] | Plant response rating, Waterhemp [14, 19]
0: Plant response rating, Sedge, Umbrella [1] | Plant response rating, Ryegrass, Italian [4, 16] | Plant response rating, Ryegrass, Italian [4, 17] | Plant response rating, Ryegrass, Italian [4, 18] | Ryegrass, Italian plant response rating [4, 20] | Ryegrass, Italian plant response rating [4, 21] | Plant response rating, Wheat [5, 16] | Plant response rating, Wheat [5, 17] | Wheat plant response rating [5, 20] | Wheat plant response rating [5, 21] | Plant response rating, Wheat [5, 22] | Plant response rating, Corn [7, 16] | Plant response rating, Corn [7, 17] | Plant response rating, Corn [7, 18] | Plant response rating, Corn [7, 19] | Corn plant response rating [7, 20] | Plant response rating, Morningglory [9, 17] | Morningglory plant response rating [9, 20] | Plant response rating, Soybean [12, 16] | Soybean plant response rating [12, 20] | Soybean plant response rating [12, 21] | Plant response rating, Soybean [12, 22] | Plant response rating, Oat, Wild ([15]; 31 g ai/ha, scale 0 to 100 (0 no effect, 100 complete control)) | Plant response rating, Oat, Wild ([15]; 62 g ai/ha, scale 0 (no effect) to 100 (complete control)) | Plant response rating, Oat, Wild ([15]; 125 g ai/ha, scale 0 to 100 (0 no effect, 100 complete control))
